Assay results taken from US7649000B2, “Selective dipeptide inhibitors of kallikrein” (Vantia Limited, priority 2002, dated 2010).
Where a name gives a salt, the structure may show the parent alone.

Legend:
Format in all cases: biochemical
[1] = target: Human Tissue Kallikrein (Homo sapiens, UniProt P06870); assay: Enzyme selectivity: inhibition of human tissue kallikrein (substrate S-2266); details: for Selectivity: (Ki for Human Tissue Kallikrein)/(Ki for plasma kallikrein); for Ki: Human Tissue Kallikrein, substrate S-2266
Chain of Human Tissue Kallikrein (P06870 25-262): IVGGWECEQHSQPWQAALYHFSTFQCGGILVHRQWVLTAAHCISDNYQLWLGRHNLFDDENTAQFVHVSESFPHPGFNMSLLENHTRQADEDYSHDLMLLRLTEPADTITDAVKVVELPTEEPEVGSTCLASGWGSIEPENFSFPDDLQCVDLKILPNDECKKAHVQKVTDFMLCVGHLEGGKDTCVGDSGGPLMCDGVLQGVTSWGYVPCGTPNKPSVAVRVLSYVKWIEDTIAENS
Experimental: (§1) Inhibition of plasma kallikrein activity in vitro was determined using standard published methods (see e.g. Johansen et al., Int. J. Tiss. […] Shori et al., Biochem. […] Stüjrzebecher et al., Biol. Chem. Hoppe-Seyler, 1992, 373, 1025). Human plasma kallikrein (Callbiochem) was incubated at 37° C. with three different concentrations of the chromogenic substrate S-2302 (Chromogenix AB) and various concentrations of the test compound. Residual enzyme activity (initial rate of reaction) was determined by measuring the change in optical absorbance at 405 nm and the inhibitory constant Ki for the test compound as determined from a Dixon plot (Dixon, Biochem. […] Determination of Enzyme Selectivity Selected compounds were further screened for inhibitory activity against other trypsin-like proteases following the method of Example 59 and using the appropriate enzyme and chromogenic substrate (Chromogenix AB). The selectivity is given by: Selectivity=(Ki for test enzyme)/(Ki for plasma kallikrein)

[2] = target: T1, Human plasma kallikrein (Homo sapiens, UniProt P03952); assay: Determination of the inhibition constant Ki for plasma kallikrein (chromogenic substrate S-2302, Dixon plot); details: substrate S-2302, 37° C.
T1 construct: purchased Callbiochem (Calbiochem)
T1 sequence (P03952 391-638 limits assumed): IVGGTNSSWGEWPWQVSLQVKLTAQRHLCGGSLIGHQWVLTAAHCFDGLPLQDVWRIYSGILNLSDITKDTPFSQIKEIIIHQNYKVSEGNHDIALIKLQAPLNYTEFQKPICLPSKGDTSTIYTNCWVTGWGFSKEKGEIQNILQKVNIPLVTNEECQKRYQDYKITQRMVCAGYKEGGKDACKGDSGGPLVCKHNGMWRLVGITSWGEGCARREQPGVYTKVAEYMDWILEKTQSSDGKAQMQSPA
T1 sequence (P03952 20-390 partner limits assumed): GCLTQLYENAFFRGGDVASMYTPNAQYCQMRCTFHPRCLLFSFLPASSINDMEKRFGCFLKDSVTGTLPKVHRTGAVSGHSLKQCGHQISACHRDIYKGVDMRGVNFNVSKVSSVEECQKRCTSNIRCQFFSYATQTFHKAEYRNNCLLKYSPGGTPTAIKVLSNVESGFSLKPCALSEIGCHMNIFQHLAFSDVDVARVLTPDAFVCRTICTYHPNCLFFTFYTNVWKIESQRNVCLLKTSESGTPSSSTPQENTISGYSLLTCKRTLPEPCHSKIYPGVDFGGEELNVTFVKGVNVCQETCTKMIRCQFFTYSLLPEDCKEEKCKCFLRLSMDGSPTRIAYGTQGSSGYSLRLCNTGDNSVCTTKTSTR
Experimental: Determination of the Inhibition Constant Ki for Plasma Kallikrein
(§2) Inhibition of plasma kallikrein activity in vitro was determined using standard published methods (see e.g. Johansen et al., Int. J. Tiss. Reac. 1986, 8, 185; Shori et al., Biochem. Pharmacol., 1992, 43, 1209; Stüjrzebecher et al., Biol. Chem. Hoppe-Seyler, 1992, 373, 1025). Human plasma kallikrein (Callbiochem) was incubated at 37° C. with three different concentrations of the chromogenic substrate S-2302 (Chromogenix AB) and various concentrations of the test compound. Residual enzyme activity (initial rate of reaction) was determined by measuring the change in optical absorbance at 405 nm and the inhibitory constant Ki for the test compound as determined from a Dixon plot (Dixon, Biochem. J., 1953, 55, 170).

[3] = target: T2, Trypsin (Bos taurus, UniProt P00760); assay: Enzyme selectivity: inhibition of trypsin (substrate S-2222)
T2 sequence (P00760 24-246): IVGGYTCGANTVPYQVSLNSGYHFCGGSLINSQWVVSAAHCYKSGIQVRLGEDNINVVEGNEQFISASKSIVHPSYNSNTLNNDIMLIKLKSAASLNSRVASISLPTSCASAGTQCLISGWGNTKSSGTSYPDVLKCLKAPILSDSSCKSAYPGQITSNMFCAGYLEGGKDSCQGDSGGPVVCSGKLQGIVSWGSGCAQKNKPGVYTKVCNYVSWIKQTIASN
Experimental: as §1

[4] = target: Thrombin (Homo sapiens, UniProt P00734); assay: Enzyme selectivity: inhibition of thrombin (substrate S-2238)
Experimental: as §2
Determination of Enzyme Selectivity
Selected compounds were further screened for inhibitory activity against other trypsin-like proteases following the method of Example 59 and using the appropriate enzyme and chromogenic substrate (Chromogenix AB). The selectivity is given by: Selectivity=(Ki for test enzyme)/(Ki for plasma kallikrein)

[5] = target: Plasmin (Homo sapiens, UniProt P00747); assay: Enzyme selectivity: inhibition of plasmin (substrate S-2390)
Chain of Plasmin (P00747 97-810): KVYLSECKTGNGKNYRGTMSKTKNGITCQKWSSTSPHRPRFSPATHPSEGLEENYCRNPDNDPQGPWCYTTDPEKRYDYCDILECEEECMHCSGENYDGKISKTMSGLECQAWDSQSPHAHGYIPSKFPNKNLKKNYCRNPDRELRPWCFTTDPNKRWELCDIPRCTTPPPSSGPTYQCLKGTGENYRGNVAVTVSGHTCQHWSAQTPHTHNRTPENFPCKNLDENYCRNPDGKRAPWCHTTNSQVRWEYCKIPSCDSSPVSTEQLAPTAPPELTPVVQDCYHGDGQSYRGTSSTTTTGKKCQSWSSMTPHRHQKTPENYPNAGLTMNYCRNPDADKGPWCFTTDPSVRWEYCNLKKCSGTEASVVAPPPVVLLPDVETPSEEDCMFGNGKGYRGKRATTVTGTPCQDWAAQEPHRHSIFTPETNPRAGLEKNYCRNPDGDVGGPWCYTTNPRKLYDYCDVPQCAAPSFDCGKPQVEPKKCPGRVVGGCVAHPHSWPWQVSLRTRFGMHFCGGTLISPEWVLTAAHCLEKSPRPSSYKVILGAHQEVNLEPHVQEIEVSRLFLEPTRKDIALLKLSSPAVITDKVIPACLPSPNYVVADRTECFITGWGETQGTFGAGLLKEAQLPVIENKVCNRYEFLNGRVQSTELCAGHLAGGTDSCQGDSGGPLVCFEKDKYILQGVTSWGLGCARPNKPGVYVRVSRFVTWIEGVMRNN
Experimental: as §1

Row | Compound | Selectivity [1] | Ki [1] [nM] | Ki [2] [nM] | also measured
1 | CCOc1ccc(C[C@@H](N)C(=O)N[C@@H](Cc2ccccc2)C(=O)NC2CCN(C(=N)N)CC2)cc1.O=C(O)C(F)(F)F [Example 1, (2′S,2″R)-4-(2′-(2″-Amino-3″-(4′″-ethoxyphenyl)propanoylamino)-3′-phenylpropanoyl-amino)piperidine-1-carboxamidine trifluoroacetate] | 10,000 | 45000 | 4.5 | 
2 | COC(=O)CN[C@H](CC1CCCCC1)C(=O)N[C@@H](Cc1ccccc1)C(=O)NC1CCN(C(=N)N)CC1 [Example 2, (2′S,2″R)-4-(2′-(3″-Cyclohexyl-2″-(methyloxycarbonylmethylamino)propanoylamino)-3′-phenylpropanoylamino)piperidine-1-carboxamidine trifluoroacetate] |  |  | 66 | 
3 | N=C(N)N1CCC(NC(=O)[C@H](Cc2ccccc2)NC(=O)[C@@H](CC2CCCCC2)NCC(=O)O)CC1.O=C(O)C(F)(F)F [Example 3, (2′S,2″R)-4-(2′-(2″-(Carboxymethylamino)-3″-cyclohexylpropanoylamino)-3′-phenyl-propanoylamino)piperidine-1-carboxamidine trifluoroacetate] | 2,000 | 6000 | 3 | Selectivity ([3]; (Ki for Trypsin)/(Ki for plasma kallikrein)): 270; Ki ([3]; Trypsin, substrate S-2222): 825 nM; Selectivity ([4]; (Ki for Thrombin)/(Ki for plasma kallikrein)): 100; Ki ([4]; Thrombin, substrate S-2238): 310 nM; Selectivity ([5]; (Ki for Plasmin)/(Ki for plasma kallikrein)): 1,000; Ki ([5]; Plasmin, substrate S-2390): 3200 nM
4 | CCOc1ccc(C[C@@H](NC(=O)c2ccccc2)C(=O)N[C@@H](Cc2ccccc2)C(=O)NC2CCN(C(=N)N)CC2)cc1.O=C(O)C(F)(F)F [Example 4, (2′S,2″R)-4-(2′-(2″-Benzoylamino-3″-(4′″-ethoxyphenyl)propanoylamino)-3′-phenyl-propanoylamino)piperidine-1-carboxamidine trifluoroacetate] | 13,000 | 18500 | 1.4 | 
5 | CCOc1ccc(C[C@@H](N)C(=O)N[C@H](C(=O)NC2CCN(C(=N)N)CC2)[C@H](O)c2ccccc2)cc1.O=C(O)C(F)(F)F [Example 5, (2′S,2″R, 3′R)-4-(2′-(2″-Amino-3″-(4′″-ethoxyphenyl)propanoylamino)-3′-hydroxy-3′-phenyl-propanoylamino)piperidine-1-carboxamidine trifluoroacetate] | >10,000 | > 70000 | 6.6 | 
6 | CCOc1ccc(C[C@@H](N)C(=O)N[C@H](C(=O)NC2CCN(C(=N)N)CC2)[C@H](OC)c2ccccc2)cc1 [Example 6, (2′S,2″R,3′R)-4-(2′-(2″-Amino-3″-(4′″-ethoxyphenyl)propanoylamino)-3′-methoxy-3′-phenyl-propanoylamino)piperidine-1-carboxamidine trifluoroacetate] |  |  | 25 | 
7 | N=C(N)N1CCC(NC(=O)[C@H](Cc2ccccc2)NC(=O)[C@@H](CC2CCC3CCCCC3C2)NCC(=O)O)CC1 (some centres unmarked) [Example 14] |  |  | 2.6 | 
8 | COC(=O)CN[C@H](CC1CCC2CCCCC2C1)C(=O)N[C@@H](Cc1ccccc1)C(=O)NC1CCN(C(=N)N)CC1 (some centres unmarked) [Example 15] |  |  | 19 | 
9 | N=C(N)N1CCC(NC(=O)[C@H](Cc2ccccc2)NC(=O)[C@H](N)Cc2ccc(OCc3ccccc3)cc2)CC1 [Example 32] |  |  | 5.5 | 
10 | CCCOc1ccc(C[C@@H](N)C(=O)N[C@@H](Cc2ccccc2)C(=O)NC2CCN(C(=N)N)CC2)cc1 [Example 34] |  |  | 7 | 
11 | CCOc1ccc(C[C@@H](NC)C(=O)N[C@@H](Cc2ccccc2)C(=O)NC2CCN(C(=N)N)CC2)cc1 [Example 39] | 930 | 14000 | 15 | 
12 | CCOc1ccc(C[C@@H](NS(C)(=O)=O)C(=O)N[C@@H](Cc2ccccc2)C(=O)NC2CCN(C(=N)N)CC2)cc1 [Example 40] | 210 | 1950 | 9 | 
13 | CCOc1ccc(C[C@@H](NS(=O)(=O)c2ccccc2)C(=O)N[C@@H](Cc2ccccc2)C(=O)NC2CCN(C(=N)N)CC2)cc1 [Example 42] | 1,500 | 6800 | 4.5 | 
14 | CCOc1ccc(C[C@@H](NC(C)=O)C(=O)N[C@@H](Cc2ccccc2)C(=O)NC2CCN(C(=N)N)CC2)cc1 [Example 43] | 9,400 | 69000 | 7.3 | 
15 | CCCC(=O)N[C@H](Cc1ccc(OCC)cc1)C(=O)N[C@@H](Cc1ccccc1)C(=O)NC1CCN(C(=N)N)CC1 [Example 44] |  |  | 4.1 | 
16 | CCOc1ccc(C[C@@H](NC(=O)CC)C(=O)N[C@@H](Cc2ccccc2)C(=O)NC2CCN(C(=N)N)CC2)cc1 [Example 45] | 16,000 | 49000 | 3 | 
17 | CCOc1ccc2c(c1)CN[C@@H](C(=O)N[C@@H](Cc1ccccc1)C(=O)NC1CCN(C(=N)N)CC1)C2 [Example 52] |  |  | 18 | 
